Patent US20160312309A1 (Millennium Pharmaceuticals, Inc., priority 2008, published 2016)

Columns and labels:
[1] = tested on: nuclear factor-κB (NF-κB) activation; details: cited from earlier work
[2] = tested on: relapsed or refractory multiple myeloma; assay: APEX phase 3 trial (039); assay type: in vivo, human; details: for Median duration of response / Median time to response / One-year survival / complete response / complete response plus near-complete response / complete response, number of patients: 039; for response rate (complete plus partial response (CR+PR)): 039, EBMT criteria; for CR + PR + MR, (%) / Complete Response, (%) / Minor Response, (%) / Near CR: IF+, (%) / No Change, (%) / Not Evaluable, (%) / Overall Response Rate (CR + PR), (%) / Partial Response, (%) / Progressive Disease, (%) / SWOG Remission, (%): best confirmed response, N = 627
Source text: (§1) Dexamethasone is a synthetic adrenocorticosteroid, CAS Registry No. 312-93-6, administered as tablets (DECADRON® Merck & Co., Inc.). 024: The CREST phase 2 trial (024) of either relapsed or refractory disease (subjects with first relapse, Jagannath et al. (2004) Br. J. Haematol. 127:165-172). […] 025: The SUMMIT phase 2 trial of patients with relapsed and refractory myeloma (subjects with second or greater relapse and refractory to their last prior therapy, Richardson P G, et al. (2003) N. Engl. J. Med. 348:2609-2617). […] Patients who received dexamethasone were treated for a maximum of 280 days by the following method: received up to four 5-week treatment cycles, followed by up to five 4-week treatment cycles. Within each 5-week treatment cycle, the patient received dexamethasone 40 mg/day PO, once daily on Days 1 to 4, 9 to 12, and 17 to 20 of a 35-day cycle. Within each 4-week treatment cycle, the patient received dexamethasone 40 mg/day PO once daily on Days 1 to 4 of a 28 day cycle. 040: Companion trial to 039 for patients who had more than 3 prior therapies. […] An additional 240 patients not from the −039 study, but who received at least 4 prior therapies also enrolled in this study.
The following section presents more detailed information on the −039 trial. During the study, disease response was assessed according to the European Group for Blood and Marrow Transplant (EBMT) criteria as presented in Table 4.
Response and date of disease progression was determined by computer algorithm that integrated data from a central laboratory and case report forms from each clinical site, according to the Blade criteria (Table 4). […] See Richardson et al., supra.
Disease progression was determined by Blade criteria as described in Table 4 and above. […] The date of progression was determined by computer algorithm. P-value from log-rank test adjusted by actual randomization factors. See Richardson et al., supra.

[3] = tested on: relapsed multiple myeloma; assay: Response in pharmacogenomic portion of the studies; assay type: in vivo, human; details: for CR, number of patients / IE, number of patients / MR, number of patients / NC, number of patients / PD, number of patients / PR, number of patients: pharmacogenomic patients, study 039; for CR+PR rate / overall response rate: pharmacogenomic set of patients
Source text: Patient samples and response criteria from patients participating in these studies, as well as the following additional studies described below were sought for use in pharmacogenomic analyses to identify markers associated with patient survival. The samples were derived from the trials as described in Table 3 and in the following paragraphs.
For those patients who participated in the pharmacogenomic portion of the study, Table 6 summarizes the response rates and Table 7 summarizes the patients evaluated for survival. […]

[4] = tested on: cells that over express B-cell lymphoma 2 (Bcl-2); details: cells that over express Bcl-2; cited from earlier work
[5] = tested on: myeloma cells; details: independent of their p53 status; cited from earlier work
[6] = tested on: xenograft tumor models; details: variety of xenograft tumor models; cited from earlier work
[7] = tested on: relapsed and refractory myeloma; assay: SUMMIT phase 2 trial (025); assay type: in vivo, human; details: Study 025, bortezomib alone
Source text: as §1

[8] = tested on: relapsed multiple myeloma; assay: CREST phase 2 trial (024); assay type: in vivo, human
Source text: as §1

[9] = difference in rates, bortezomib vs dexamethasone
[10] = difference in response rates, bortezomib vs dexamethasone

CC(C)C[C@H](NC(=O)[C@H](Cc1ccccc1)NC(=O)c1cnccn1)B(O)O [bortezomib, N (pyrazine)carbonyl-L-phenylalanine-L-leucine boronic acid]
NF-κB activation [1]: inhibits
Median duration of response [2]: 8 months
Median time to response [2]: 43 days
One-year survival [2]: 80%
complete response [2]: 6%
complete response plus near-complete response [2]: 13%
complete response, number of patients [2]: 20 patients
response rate (complete plus partial response (CR+PR)) [2]: 38%
CR + PR + MR, (%) [2]: (46) %
Complete Response, (%) [2]: (6) %
Minor Response, (%) [2]: (8) %
Near CR: IF+, (%) [2]: (7) %
No Change, (%) [2]: (43) %
Not Evaluable, (%) [2]: (3) %
Overall Response Rate (CR + PR), (%) [2]: (38) %
Partial Response, (%) [2]: (32) %
Progressive Disease, (%) [2]: (7) %
SWOG Remission, (%) [2]: (15) %
No Change, Difference [2, 9]: −0.04
Not Evaluable, Difference [2, 9]: −0.01
Progressive Disease, Difference [2, 9]: −0.06
CR + PR + MR, Difference [2, 10]: 0.12
Complete Response, Difference [2, 10]: 0.06
Minor Response, Difference [2, 10]: −0.09
Near CR: IF+, Difference [2, 10]: 0.06
Overall Response Rate (CR + PR), Difference [2, 10]: 0.20
Partial Response, Difference [2, 10]: 0.15
SWOG Remission, Difference [2, 10]: 0.09
decrease in risk of death ([2]; first year after enrollment, bortezomib group vs dexamethasone): 41%
CR, number of patients [3]: 5
IE, number of patients [3]: 9
MR, number of patients [3]: 5
NC, number of patients [3]: 19
PD, number of patients [3]: 13
PR, number of patients [3]: 25
CR+PR rate [3]: 32%
overall response rate [3]: 42.3%
apoptosis [4]: induces apoptosis
cytotoxicity to myeloma cells in culture [5]: directly cytotoxic
cytotoxic activity in xenograft tumor models [6]: cytotoxic activity
CR+PR rate [7]: 27%
overall response rate (CR+PR+minimal response (MR)) [7]: 35%
CR+PR, number of patients ([7]; of 193 patients): 53 patients
overall response (CR+PR+MR), number of patients ([7]; of 193 patients): 67 patients
complete response (CR)+partial response (PR) rate ([8]; Study 024, bortezomib 1.0 mg/m^2): 30%
complete response (CR)+partial response (PR) rate ([8]; Study 024, bortezomib 1.3 mg/m^2): 38%

C[C@@H]1C[C@H]2[C@@H]3CCC4=CC(=O)C=C[C@]4(C)[C@@]3(F)[C@@H](O)C[C@]2(C)[C@@]1(O)C(=O)CO [dexamethasone, Dexamethasone]
Median duration of response [2]: 5.6 months
Median time to response [2]: 43 days
One-year survival [2]: 66%
complete response [2]: < 1%
complete response plus near-complete response [2]: 2%
complete response, number of patients [2]: 2 patients
response rate (complete plus partial response (CR+PR)) [2]: 18%
CR + PR + MR, (%) [2]: (35) %
Complete Response, (%) [2]: (<1) %
Minor Response, (%) [2]: (17) %
Near CR: IF+, (%) [2]: (<1) %
No Change, (%) [2]: (48) %
Not Evaluable, (%) [2]: (4) %
Overall Response Rate (CR + PR), (%) [2]: (18) %
Partial Response, (%) [2]: (17) %
Progressive Disease, (%) [2]: (13) %
SWOG Remission, (%) [2]: (5) %
CR, number of patients [3]: 1
IE, number of patients [3]: 6
MR, number of patients [3]: 11
NC, number of patients [3]: 16
PD, number of patients [3]: 22
PR, number of patients [3]: 13
CR+PR rate [3]: 22.2%
overall response rate [3]: 39.7%
